No end group written: not given here.
What was measured:
mice = assay: Elevated plus-maze; type: in vivo, mouse; conditions: spadin i.p. 10^-5 M, diazepam i.p. 0.5 mg/kg
Description: Elevated plus-maze. The apparatus consisted of two open and two enclosed arms of the same size (45×5 cm) with walls 15 cm high. The arms, constructed of black acrylic, radiate from a common central platform (5×5 cm) to form a plus sign. Open arms were arranged opposite to one another, as were closed arms. The maze was elevated to a height of 45 cm above floor level. Each mouse was placed in the central platform facing one of the open arms. The number of entries into the open and closed arms and the time spent on the open and closed arms were recorded during a 5 min test period. Time spent in the unprotected open arms as well as the number of entries in open arms in relation to the total of arm entries are used as experimental indices of anxiety.

TREK-1 = target: T1, TREK-1 (Mus musculus, UniProt P97438); assay: Association kinetics / internalization of 125I-spadin on COS-7 cells expressing TREK-1; type: cell-based; design: expressed in transfected cells; host or cells: COS-7 (DEAE-dextran transfection); conditions: 37° C.
T1 sequence (P97438 1-426): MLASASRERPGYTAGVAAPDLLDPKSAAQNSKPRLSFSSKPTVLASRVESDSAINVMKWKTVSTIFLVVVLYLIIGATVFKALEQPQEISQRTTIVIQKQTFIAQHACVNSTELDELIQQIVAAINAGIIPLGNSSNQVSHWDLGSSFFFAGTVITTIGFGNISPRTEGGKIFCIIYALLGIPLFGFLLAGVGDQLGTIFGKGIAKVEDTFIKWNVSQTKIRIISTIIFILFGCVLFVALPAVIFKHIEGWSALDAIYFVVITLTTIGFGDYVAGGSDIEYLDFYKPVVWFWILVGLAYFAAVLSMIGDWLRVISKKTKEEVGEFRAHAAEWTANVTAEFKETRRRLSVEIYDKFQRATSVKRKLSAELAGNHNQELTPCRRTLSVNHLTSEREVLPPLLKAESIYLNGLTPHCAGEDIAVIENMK
Protocol: Cells, grown on 12 mm multiwell-dishes, were incubated with 0.2 nM ^125I-spadin for various times at 37° C. in an Earle's Tris-Hepes buffer (cell binding buffer). Incubations were terminated by washing cells twice with the binding buffer or with the same buffer containing 0.5 M NaCl, pH 4, for 2 min to remove non sequestrated radioactivity (acid-NaCl wash). Cells were harvested with 1 ml of 0.1 N NaOH and counted in a gamma-counter. Non specific binding was determined in the presence of 10 μM unlabeled spadin.

With APLPRWSGPIGVSWGLR [spadin] the “time spent in the open arms” value (mice) was “had no effect” and the “time for cell-associated radioactivity to reach a plateau” value (TREK-1) was no more than 30 min.
